The results in this text go back to patent publication EP4596547A1, “HETEROCYCLIC COMPOUND AND HARMFUL ARTHROPOD-CONTROLLING COMPOSITION CONTAINING SAME” (priority 2022, dated 2024).

Holding throughout (assay type): in vivo
Experiment [1] deals with cotton aphids (Aphis gossypii). The experiment can be described thus: Test method 1: foliar spray on cucumber seedlings inoculated with cotton aphids (formulation per Formulation Example 1). The settings on record: 120 h, 500 ppm, sprayed 10 mL/seedling one day after inoculation, surviving insects examined after 5 days, 25°C, read-out: control value.
For experiment [2], the system named is common cutworm (Spodoptera litura). The experiment can be described thus: Test method 3: sprayed cabbage foliage cut out, second instar larvae of common cutworm released. The settings on record: foliar, 120 h, sprayed 20 mL/seedling, five second instar larvae, after 5 days, 25°C. On the procedure: (§1) A test compound is formed into a formulation according to the method described in Formulation Example 1, and water containing 0.03% by volume of Shindain (registered trademark) is added thereto to prepare a diluted solution containing the test compound at a predetermined concentration.
A cabbage (Brassicae oleracea) seedling (2 to 3 true leaf stage) planted in a container is sprayed with the diluted solution at a rate of 20 mL/seedling. Thereafter, the foliage portion of the seedling is cut out and placed in a container on which filter paper is laid. Thereto are released five second instar larvae of common cutworm (Spodoptera litura). After 5 days, the number of surviving insects is counted, and the mortality is determined from the following equation. [formula]

Experiment [3] relates to diamondback moth (Plutella xylostella). Description: Test method 4: sprayed cabbage foliage cut out, second instar larvae of diamondback moth released. The settings on record: foliar, 120 h, sprayed 20 mL/seedling, five second instar larvae, after 5 days, 25°C. As to the method:
as §1
A cabbage (Brassicae oleracea) seedling (2 to 3 true leaf stage) planted in a container is sprayed with the diluted solution at a rate of 20 mL/seedling. Thereafter, the foliage portion of the seedling is cut out and placed in a container on which filter paper is laid. Thereto are released five second instar larvae of diamondback moth (Plutella xylostella). After 5 days, the number of surviving insects is counted, and the mortality is determined from the following equation. [formula]

In experiment [4] the test system is Musca domestica. Description: Test method 8: container inner surface coated with test compound, Musca domestica. The note with it: 24 h, 40 mg/m^2 (800 ppm acetone solution), five adult female, 1 days, 25°C. As to the method:
An acetone solution prepared such that the amount of the test compound is 800 ppm is poured into a container having an internal volume of 20 mL, and the inner surface of the container is uniformly coated such that the amount of the test compound is 40 mg/m^2, and then dried.
Five adult female Musca domestica are placed in the container, and the lid is closed. After a lapse of a predetermined time, the state of Musca domestica is examined, and the mortality is determined. The mortality is calculated by the following equation. [formula]

Experiment [5] relates to diamondback moth (Plutella xylostella). The experiment can be described thus: Test method 10: sprayed cabbage seedling, third instar larvae of diamondback moth released. The note with it: 144 h, sprayed 20 mL/seedling, 10 third instar larvae, after 6 days, 25°C. On the procedure: (§2) A test compound is formed into a formulation according to the method described in Formulation Example 5, and water containing 0.03% by volume of Shindain (registered trademark) is added thereto to prepare a diluted solution containing the test compound at a predetermined concentration.
A cabbage (Brassicae oleracea) seedling (3 to 4 true leaf stage) planted in a container is sprayed with the diluted solution at a rate of 20 mL/seedling. Thereafter, 10 third instar larvae of diamondback moth (Plutella xylostella) are released. After 6 days, the number of surviving insects is counted, and the mortality is determined from the following equation. [formula]

Experiment [6] relates to cotton aphids (Aphis gossypii). Description: Test method 11: foliar spray on cucumber seedlings inoculated with cotton aphids (formulation per Formulation Example 5). The settings on record: 120 h, sprayed 10 mL/seedling one day after inoculation, after 5 days, 25°C, read-out: control value.
Experiment [7] deals with Culex pipiens pallens. The experiment can be described thus: Test method 12: last-instar larvae of Culex pipiens pallens released into diluted solution. The note with it: 24 h, 30 last-instar larvae, one day later, 25°C. As to the method:
The test compound is formulated according to the method described in Formulation Example 1, and water is added thereto to prepare a diluted solution containing the test compound at a predetermined concentration. 30 last-instar larvae of Culex pipiens pallens are released into the diluted solution, and the state of the larvae of Culex pipiens is examined one day later to determine the Mortality. The mortality is calculated by the following equation. [formula]

Experiment [8] has as its system Aphis gossypii. Description: Test method 2: soil irrigation of cucumber seedlings, later inoculated with Aphis gossypii. The settings on record: 144 h, irrigated 5 mL/seedling, inoculated after 7 days, surviving insects examined after 6 days, 25°C, read-out: control value. As to the method: The test compound is formulated according to the method described in Formulation Example 5, and water is added thereto to prepare a diluted solution containing the test compound at a predetermined concentration. A cucumber (Cucumis sativus) seedling (second true leaf stage) planted in a container is irrigated with the diluted solution at a rate of 5 mL/seedling. After 7 days, the leaf surface of this seedling is inoculated with about 30 Aphis gossypii (whole stage). After 6 days, the number of surviving insects is examined, and the control value is determined by the following formula. [formula] • Characters in the formula represent the following meanings. • Cb: number of test insects in a non-treated section • Cai: number of surviving insects in a non-treated section at the time of investigation • Tb: number of test insects in a treated section • Tai: number of surviving insects in a treated section at the time of investigation Herein, the non-treated section means a section that is subjected to the same operation as that of the treated section except that the test compound is not used.

In experiment [9] the test system is Blattella germanica. Description: Test method 6: container inner surface coated with test compound, Blattella germanica. The note with it: 72 h. As to the method: An acetone solution prepared such that the amount of the test compound is 800 ppm is poured into a container having an internal volume of 50 mL, and the inner surface of the container is uniformly coated such that the amount of the test compound is 40 mg/m^2, and then dried.
Five male imagoes of Blattella germanica are placed in the container, and the lid is closed. After a lapse of a predetermined time, the state of Blattella germanica is examined, and the mortality is determined. The mortality is calculated by the following equation. [formula]

The test system of experiment [10] is common cutworm (Spodoptera litura). The experiment can be described thus: Test method 9: sprayed cabbage seedling, third instar larvae of common cutworm released. The settings on record: 144 h. As to the method:
as §2
A cabbage (Brassicae oleracea) seedling (3 to 4 true leaf stage) planted in a container is sprayed with the diluted solution at a rate of 20 mL/seedling. Thereafter, 10 third instar larvae of common cutworm (Spodoptera litura) are released. After 6 days, the number of surviving insects is counted, and the mortality is determined from the following equation. [formula]

For experiment [11], the system named is Haemaphysalis longicornis. The experiment can be described thus: Test method 7: container inner surface coated with test compound, Haemaphysalis longicornis nymphs. The settings on record: 48 h, 100 mg/m^2 (2000 ppm acetone solution), five nymphs, 2 days, 25°C. As to the method:
An acetone solution prepared such that the amount of the test compound is 2000 ppm is poured into a container having an internal volume of 20 mL, and the inner surface of the container is uniformly coated such that the amount of the test compound is 100 mg/m^2, and then dried.
Five nymphs of Haemaphysalis longicornis are placed in the container, and the lid is closed. After a lapse of a predetermined time, the state of Haemaphysalis longicornis is examined to determine the mortality. The mortality is calculated by the following equation. [formula]

Experiment [12] relates to Western corn rootworm (Diabrotica virgifera virgifera). Description: whole plant or invertebrate. The settings on record: 120 h. On the procedure: Each 1 mg of the test compound is dissolved in 50 µL of a mixed solution of polyoxyethylene sorbitan monococoate and acetone (5 : 95 (volume ratio)). Water containing 0.03% by volume of Shindain (registered trademark) is added thereto to prepare a diluted solution containing the test compound at a predetermined concentration.
Young seedlings of maize (Zea mays) are immersed in the diluted solution for 30 seconds. Thereafter, the two […] are placed in a petri dish (90 mm diameter), and thereto are released 10 second instar larvae of Western corn rootworm (Diabrotica virgifera virgifera). After 5 days, the number of dead insects is counted, and the mortality is determined from the following equation. [formula]

For the molecule `CCSc1c(N(C)C(=O)c2ccc(C(F)(F)F)s2)nc2ccc(I)cn12` [compound 6], the mortality at 500 ppm is not below 90% in experiment [1], not below 80% in experiment [2] and not below 80% in experiment [3]. In experiment [4], this molecule had a mortality at 40 mg/m2, 40 mg/m2 not below 80%. The mortality at 200 ppm in experiment [5] is not below 80%; in experiment [6], not below 90%. Besides, the mortality at 50 ppm in experiment [6] is not below 90%. The mortality at 3.5 ppm in experiment [7] was more than 90%.

As for `CCSc1c(N(C)C(=O)c2cnc(C(F)(F)F)s2)nc2ccc(I)cn12` [compound 7], the mortality at 500 ppm in experiment [1] was not below 90%; in experiment [3] it was not below 80%. Also, in experiment [8], the mortality at 1000 ppm is not below 90%. The mortality at 50 ppm in [5] is not below 80%; in experiment [6] it was not below 90%. Moreover, the mortality at 200 ppm in experiment [5] was not below 80%; in experiment [6] it was not below 90%. In addition, in experiment [7], the mortality at 3.5 ppm is more than 90%.

Consider `CCSc1c(N(C)C(=O)c2cc(C(F)(F)F)n(C)n2)nc2ccc(I)cn12` [compound 16], for which the mortality at 500 ppm in experiment [1] was not below 90%; in experiment [2], not below 80%; in experiment [3], not below 80%. Moreover, the mortality at 1000 ppm in experiment [8] is not below 90%. Moreover, in experiment [4], the mortality at 40 mg/m2, 40 mg/m2 is not below 80%. Also, the mortality at 200 ppm in experiment [6] was not below 90%. For the same molecule, in experiment [7], the mortality at 3.5 ppm was more than 90%.

Consider `CCSc1c(N(C)C(=O)c2cnn(C(F)(F)F)c2)nc2ccc(I)cn12` [compound 23], for which the mortality at 500 ppm in [1] was not below 90%; in [3], not below 80%. The molecule further displayed a mortality at 40 mg/m2, 40 mg/m2 in experiment [9] not below 80%. Further, the mortality at 200 ppm was not below 80% in [10] and not below 90% in [6]. Further, the mortality at 3.5 ppm in [7] was more than 90%.

Regarding `CCS(=O)(=O)c1c(N(C)C(=O)c2cnc(C(F)(F)F)s2)nc2ccc(I)cn12` [compound 40], the mortality at 500 ppm in experiment [1] was not below 90%; in experiment [2], not below 80%; in experiment [3], not below 80%. For the same molecule, in [8], the mortality at 1000 ppm is not below 90%. For the same molecule, the mortality at 50 ppm in experiment [5] was not below 80%; in experiment [6], not below 90%. Besides, the mortality at 200 ppm is not below 80% in experiment [5] and not below 90% in experiment [6]. In addition, the mortality at 3.5 ppm in experiment [7] was more than 90%.

Regarding `CCS(=O)(=O)c1c(N(C)C(=O)c2cnc(C(F)(F)F)s2)nc2ccc(Br)cn12` [compound 42], the mortality at 500 ppm is not below 90% in [1] and not below 80% in [3]. Further, in experiment [8], the mortality at 1000 ppm is not below 90%. For the same molecule, the mortality at 200 ppm in [5] was not below 80%; in [6], not below 90%. Also, the mortality at 50 ppm in experiment [6] was not below 90%. Besides, the mortality at 3.5 ppm in experiment [7] was more than 90%.

Consider `CCS(=O)(=O)c1c(N(C)C(=O)c2cnc(C(F)(F)F)s2)nc2ccc(C(F)(F)F)cn12` [compound 44], for which the mortality at 500 ppm in experiment [1] is not below 90%; in experiment [3] it was not below 80%. Further, in experiment [8], the mortality at 1000 ppm was not below 90%. The mortality at 200 ppm in experiment [5] was not below 80%; in experiment [6] it was not below 90%. For the same molecule, the mortality at 50 ppm in experiment [6] was not below 90%. Also, the mortality at 3.5 ppm in experiment [7] was more than 90%.

Turning to `CC[S+]([O-])c1c(N(C)C(=O)c2cnc(C(F)(F)F)s2)nc2cc(I)ccn12` (centres unmarked) [compound 45], the mortality at 500 ppm in experiment [1] was not below 90%. This molecule yielded a mortality at 100 mg/m2, 100 mg/m2 in experiment [11] not below 80%. Further, in [6], the mortality at 50 ppm is not below 90% and the mortality at 200 ppm was not below 90%. The mortality at 3.5 ppm in experiment [7] is more than 90%.

Take `CCS(=O)(=O)c1c(N(C)C(=O)c2cnc(C(F)(F)F)s2)nc2cc(Br)ccn12` [compound 48]: the values for the mortality at 500 ppm in experiment [1], in experiment [2] and in [3] were not below 90%, not below 80% and not below 80%, respectively. For the same molecule, the mortality at 200 ppm in experiment [5] is not below 80%; in [6], not below 90%. Also, the mortality at 50 ppm in experiment [6] was not below 90%. The mortality at 3.5 ppm in [7] was more than 90%.

Take `CCS(=O)(=O)c1c(N(C)C(=O)c2cc(C(F)(F)F)n(C)n2)nc2ccc(I)cn12` [compound 52]: the mortality at 500 ppm was not below 90% in experiment [1] and not below 80% in experiment [3]. Further, the mortality at 1000 ppm in [8] is not below 90%. Besides, the mortality at 200 ppm in experiment [12] was not below 80%; in [5] it was not below 80%; in [6] it was not below 90%. Also, the mortality at 40 mg/m2, 40 mg/m2 in experiment [4] was not below 80%. Also, the mortality at 50 ppm in experiment [5] was not below 80%; in experiment [6], not below 90%. Moreover, in experiment [7], the mortality at 3.5 ppm is more than 90%.
